From PMC3691235, “Discovery of a Novel Dual Fungal CYP51/Human 5-Lipoxygenase Inhibitor: Implications for Anti-Fungal Therapy” (PLoS ONE, 2013)

How the values were obtained:
Type in all cases: biochemical
human COX-2 = target: T1, human COX-2 (Homo sapiens, UniProt P35354); test: Cyclooxygenase assay (oxygen electrode), COX-2; settings: 100 µM AA, pH 8.0, 37°C, oxygen consumption
T1 construct: purchased Cayman chemical 60122
T1 sequence (P35354 18-604): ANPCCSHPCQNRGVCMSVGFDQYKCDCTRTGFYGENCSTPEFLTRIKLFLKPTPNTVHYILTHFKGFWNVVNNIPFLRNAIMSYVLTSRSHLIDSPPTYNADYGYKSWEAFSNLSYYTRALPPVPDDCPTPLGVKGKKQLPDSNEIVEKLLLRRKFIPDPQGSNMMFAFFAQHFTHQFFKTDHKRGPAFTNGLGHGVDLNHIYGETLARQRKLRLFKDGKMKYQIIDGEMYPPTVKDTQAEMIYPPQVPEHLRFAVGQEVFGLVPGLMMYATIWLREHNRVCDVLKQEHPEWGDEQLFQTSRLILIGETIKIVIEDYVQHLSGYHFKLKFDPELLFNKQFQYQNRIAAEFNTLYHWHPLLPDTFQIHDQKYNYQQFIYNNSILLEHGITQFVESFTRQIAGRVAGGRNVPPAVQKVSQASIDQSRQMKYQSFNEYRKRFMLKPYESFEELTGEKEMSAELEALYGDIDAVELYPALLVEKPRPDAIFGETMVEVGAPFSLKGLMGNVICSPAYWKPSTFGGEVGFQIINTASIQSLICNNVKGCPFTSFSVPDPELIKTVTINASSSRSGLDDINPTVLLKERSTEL
Procedure: Ovine COX-1 (Cat. No. 60100) and human COX-2 (Cat. No. 60122) were purchased from Cayman chemical. Approximately 2 µg of either COX-1 or COX-2 were added to buffer containing 100 µM AA, 0.1 M Tris-HCl buffer (pH 8.0), 5 mM EDTA, 2 mM phenol and 1 µM hematin at 37°C. Data was collected using a Hansatech DW1 oxygen electrode chamber, as described before. Inhibitor or vehicle were mixed with the respective COX in buffer within the electrode cell, the reaction was initiated by the addition of AA, followed by monitoring of rate of oxygen consumption. Ibuprofen, aspirin and indomethacin, and the carrier solvent, DMSO, were used as positive and negative controls, respectively.

5-LOX = target: T2, 5-LOX (Homo sapiens, UniProt P09917); test: Pseudoperoxidase activity assay; settings: 10 µM inhibitor, 10 µM 13-HPODE, positive = loss of greater than 40% of product absorption at 234 nm
T2 construct: made in house
T2 sequence (P09917 1-674): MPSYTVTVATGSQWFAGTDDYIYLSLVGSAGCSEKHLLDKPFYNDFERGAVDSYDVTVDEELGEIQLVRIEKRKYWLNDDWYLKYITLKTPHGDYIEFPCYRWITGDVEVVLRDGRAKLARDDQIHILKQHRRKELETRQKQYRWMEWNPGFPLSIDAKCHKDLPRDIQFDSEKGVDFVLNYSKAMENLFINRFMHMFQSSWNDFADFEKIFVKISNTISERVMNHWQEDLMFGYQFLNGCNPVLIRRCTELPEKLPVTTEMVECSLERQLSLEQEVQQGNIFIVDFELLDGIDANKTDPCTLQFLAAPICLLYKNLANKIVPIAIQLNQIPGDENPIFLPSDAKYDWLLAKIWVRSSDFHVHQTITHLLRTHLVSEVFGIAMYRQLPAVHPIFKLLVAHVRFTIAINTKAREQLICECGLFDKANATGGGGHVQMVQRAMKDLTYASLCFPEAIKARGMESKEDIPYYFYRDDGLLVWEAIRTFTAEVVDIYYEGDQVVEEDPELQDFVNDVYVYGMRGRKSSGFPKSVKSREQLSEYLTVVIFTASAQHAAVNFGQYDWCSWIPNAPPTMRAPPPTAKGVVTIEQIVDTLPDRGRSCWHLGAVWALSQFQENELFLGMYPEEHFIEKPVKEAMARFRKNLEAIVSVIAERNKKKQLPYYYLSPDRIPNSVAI
Procedure: The reductive properties of the inhibitors were determined by monitoring the pseudoperoxidase activity of lipoxygenase in the presence of the inhibitor and 13-(S)-hydroperoxyoctadecadienoic acid (13-HPODE). Activity is monitored by direct measurement of the product degradation following the decrease of absorbance at 234 nm using a Perkin-Elmer Lambda 40 UV/Vis spectrometer (50 mM Sodium Phosphate (pH 7.4), 0.3 mM CaCl2, 0.1 mM EDTA, 0.01% Triton X100, 10 µM 13-HPODE). All reactions were performed in 2 mL of buffer and constantly stirred with a rotating stir bar (23°C). Reaction was initiated by addition of 10 µM inhibitor (a 1 to 1 ratio to 13-HPODE), and a positive result for activity reflected a loss of greater than 40% of product absorption at 234 nm.

HsCYP51 = target: T3, HsCYP51 (Homo sapiens, UniProt Q16850); test: CYP51 reconstitution assay, HsCYP51; settings: for IC50: 0.3 µM HsCYP51, 50 µM lanosterol
T3 construct: made in house; host or cells: E. coli
T3 sequence (Q16850 1-509): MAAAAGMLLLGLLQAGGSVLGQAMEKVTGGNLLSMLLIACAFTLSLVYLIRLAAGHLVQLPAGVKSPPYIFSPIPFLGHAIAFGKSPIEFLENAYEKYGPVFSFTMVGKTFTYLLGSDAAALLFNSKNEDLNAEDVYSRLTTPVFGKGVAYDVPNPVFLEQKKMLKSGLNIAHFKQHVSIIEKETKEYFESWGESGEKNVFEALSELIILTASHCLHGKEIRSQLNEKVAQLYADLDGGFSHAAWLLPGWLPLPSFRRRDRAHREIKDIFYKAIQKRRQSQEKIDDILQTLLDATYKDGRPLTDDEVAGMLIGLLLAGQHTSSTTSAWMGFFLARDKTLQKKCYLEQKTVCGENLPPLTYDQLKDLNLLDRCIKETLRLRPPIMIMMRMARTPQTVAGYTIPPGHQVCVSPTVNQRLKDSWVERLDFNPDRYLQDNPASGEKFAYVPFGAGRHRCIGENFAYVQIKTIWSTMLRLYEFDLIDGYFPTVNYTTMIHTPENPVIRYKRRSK
Procedure: Azole antifungal agents were added in 5 µL DMSO followed by incubation for 5 minutes at 37°C prior to assay initiation with 4 mM β-NADPHNa4, with shaking for a further 10 minutes at 37°C. Sterol metabolites were recovered by extraction with ethyl acetate followed by derivatization with N,O-bis(trimethylsilyl)trifluoroacetamide and […] prior to analysis by gas chromatography mass spectrometry.

SMILES	IC50 (human COX-2) [µM]	Reductive activity (pseudoperoxidase activity) (5-LOX)	IC50 (HsCYP51) [µM]	remaining activity at 155 µM (HsCYP51; HsCYP51, at 155 µM compound) [%]	fold higher IC50 over ketoconazole with HsCYP51 (HsCYP51; ratio of IC50 values) [fold]	HsCYP51 activity, in words (HsCYP51; at 95 µM compound)	Reductive activity (pseudoperoxidase activity) (5-LOX; listed as Setileuton)
CC(C)(C)OC(=O)N1CCN(c2ccc(NCc3ccc(-c4ccc(C#N)cc4)o3)cc2)CC1 [Compound 1]	> 150	Yes					
CC(=O)N1CCN(c2ccc(NCc3ccc(-c4cccc(Cl)c4)o3)cc2)CC1 [Compound 13]	> 150						
Cc1cc(C2CCCCC2)n(O)c(=O)c1 [ciclopirox, reference compound]	> 150						
CC(=O)N1CCN(c2ccc(NCC3COC(Cn4ccnc4)(c4ccc(Cl)cc4Cl)O3)cc2)CC1 (stereo not drawn) [ketaminazole (16), ketaminazole]	> 150	reductive inhibitor and Yes	~16	~30	3		
CC(=O)N1CCN(c2ccc(OCC3COC(Cn4ccnc4)(c4ccc(Cl)cc4Cl)O3)cc2)CC1 (stereo not drawn) [ketoconazole, reference compound]	> 150	No	~5			inactivated	
CC[C@](O)(c1nnc(NCc2ccc3c(-c4ccc(F)cc4)cc(=O)oc3c2)o1)C(F)(F)F [setileuton, reference compound]		non-reductive					No
